Results reported in patent publication US8906939B2, “3-cyano-4-(4-tetrahydropyran-phenyl)-pyridin-2-one derivatives” (Janssen Pharmaceuticals, Inc., priority 2007, dated 2014).

What was measured:
human mGluR2 receptor = target: T1, human mGluR2 receptor (Homo sapiens, UniProt Q14416); assay: [35S]GTPγS binding assay, mGluR2 positive allosteric modulation (GTPγS-PAM); type: biochemical; settings: membranes from CHO cells transfected with human mGluR2; in presence of glutamate at EC25 concentration; averages of duplicate values of 11-concentration response curves; read-out: GTPgS - hR2 PAM pEC50 (converted)
T1 construct: expressed in transfected cells; host or cells: CHO cells (membrane preparation)
T1 sequence (Q14416 19-872): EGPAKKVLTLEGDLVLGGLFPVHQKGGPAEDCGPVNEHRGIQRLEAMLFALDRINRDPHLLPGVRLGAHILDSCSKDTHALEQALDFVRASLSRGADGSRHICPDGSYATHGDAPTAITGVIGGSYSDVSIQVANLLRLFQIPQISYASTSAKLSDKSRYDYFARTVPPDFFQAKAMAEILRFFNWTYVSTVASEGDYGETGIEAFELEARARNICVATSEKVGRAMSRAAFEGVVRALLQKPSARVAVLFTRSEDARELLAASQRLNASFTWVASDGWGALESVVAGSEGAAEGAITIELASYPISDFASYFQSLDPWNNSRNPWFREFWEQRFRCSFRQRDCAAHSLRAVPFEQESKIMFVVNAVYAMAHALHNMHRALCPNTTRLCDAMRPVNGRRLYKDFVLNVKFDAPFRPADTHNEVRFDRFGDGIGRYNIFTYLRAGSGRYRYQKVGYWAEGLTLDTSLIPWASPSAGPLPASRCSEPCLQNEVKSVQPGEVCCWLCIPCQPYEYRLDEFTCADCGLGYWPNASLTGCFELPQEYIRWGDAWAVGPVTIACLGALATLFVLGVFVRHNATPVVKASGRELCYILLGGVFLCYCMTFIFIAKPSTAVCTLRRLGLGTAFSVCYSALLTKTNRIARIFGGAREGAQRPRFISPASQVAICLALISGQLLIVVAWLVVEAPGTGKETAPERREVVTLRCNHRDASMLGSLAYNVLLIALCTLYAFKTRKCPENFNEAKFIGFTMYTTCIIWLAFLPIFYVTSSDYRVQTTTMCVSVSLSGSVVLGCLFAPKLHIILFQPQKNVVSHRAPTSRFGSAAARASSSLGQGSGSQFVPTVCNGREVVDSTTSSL
Source text: The compounds provided in the present invention are positive allosteric modulators of mGluR2. These compounds appear to potentiate glutamate responses by binding to an allosteric site other than the glutamate binding site. The response of mGluR2 to a concentration of glutamate is increased when compounds of formula (I) are present. Compounds of formula (I) are expected to have their effect substantially at mGluR2 by virtue of their ability to enhance the function of the receptor. The behaviour of positive allosteric modulators tested at mGluR2 using the [^35S]GTPγS binding assay method described below and which is suitable for the identification of such compounds, and more particularly the compounds according to formula (I), are shown in Table 3.
[^35S]GTPγS Binding Assay
The [^35S]GTPγS binding assay is a functional membrane-based assay used to study G-protein coupled receptor (GPCR) function whereby incorporation of a non-hydrolysable form of GTP, [^35S]GTPγS (guanosine 5′-triphosphate, labelled with […] ^35S), is measured. The G-protein […] subunit catalyzes the exchange of guanosine 5′-diphosphate (GDP) by guanosine triphosphate (GTP) and on activation of the GPCR by an agonist, [^35S]GTPγS, becomes incorporated and cannot be cleaved to continue the exchange cycle (Harper (1998) Current Protocols in Pharmacology 2.6.1-10, John Wiley & Sons, Inc.). […] Here we describe the use of the [^35S]GTPγS binding assay using membranes from cells transfected with the human mGluR2 receptor and adapted from Schaffhauser et al ((2003) Molecular Pharmacology 4:798-810) for the detection of the positive allosteric modulation (PAM) properties of the compounds of this invention.
CHO-cells were cultured to pre-confluence and stimulated with 5 mM butyrate for 24 hours, prior to washing in PBS, and then collection by scraping in homogenisation buffer (50 mM Tris-HCl buffer, pH 7.4, 4° C.). Cell lysates were homogenized briefly (15s) using an ultra-turrax homogenizer. The homogenate was centrifuged at 23 500×g for 10 minutes and the supernatant discarded. The pellet was resuspended in 5 mM Tris-HCl, pH 7.4 and centrifuged again (30 000×g, 20 min, 4° C.). The final pellet was resuspended in 50 mM HEPES, pH 7.4 and stored at −80° C. in appropriate aliquots before use. Protein concentration was determined by the Bradford method (Bio-Rad, USA) with bovine serum albumin as standard.
Measurement of mGluR2 positive allosteric modulatory activity of test compounds in membranes containing human mGluR2 was performed using frozen membranes that were thawed and briefly homogenised prior to pre-incubation in 96-well microplates (15 μg/assay well, 30 minutes, 30° C.) in assay buffer (50 mM HEPES pH 7.4, 100 mM NaCl, 3 mM MgCl2, 50 μM GDP, 10 μg/ml saponin,) with increasing concentrations of positive allosteric modulator (from 0.3 nM to 50 μM) and either a minimal pre-determined concentration of glutamate (PAM assay), or no added glutamate. For the PAM assay, membranes were pre-incubated with glutamate at EC25 concentration, i.e. a concentration that gives 25% of the maximal response glutamate, and is in accordance to published data (Pin et al. (1999) Eur. J. Pharmacol. 375:277-294). After addition of [^35S]GTPγS (0.1 nM, f.c.) to achieve a total reaction volume of 200 μl, microplates were shaken briefly and further incubated to allow [^35S]GTPγS incorporation on activation (30 minutes, 30° C.). The reaction was stopped by rapid vacuum filtration over glass-fibre filter plates (Unifilter 96-well GF/B filter plates, Perkin-Elmer, Downers Grove, USA) microplate using a 96-well plate cell harvester (Filtermate, Perkin-Elmer, USA), and then by washing three times with 300 μl of ice-cold wash buffer (Na2PO4.2H2O 10 mM, NaH2PO4.H2O 10 mM, pH=7.4). […]

**Q.** With N#Cc1c(-c2ccc(NC3CCOCC3)c(F)c2)ccn(CC2CC2)c1=O [Compound 1, 1-Cyclopropylmethyl-4-[3-fluoro-4-(tetrahydro-pyran-4-ylamino)-phenyl]-2-oxo-1,2-dihydro-pyridine-3-carbonitrile] as the compound, how does the melting point read?
**A.** 249.5 °C

**Q.** And the EC50 (human mGluR2 receptor)?
**A.** ~1000 nM

**Q.** With N#Cc1c(-c2ccc(NC3CCOCC3)c(Cl)c2)ccn(CC2CC2)c1=O [Compound 2, 1-Cyclopropylmethyl-4-[3-chloro-4-(tetrahydro-pyran-4-ylamino)-phenyl]-2-oxo-1,2-dihydro-pyridine-3-carbonitrile] as the compound, how does the EC50 (human mGluR2 receptor) read?
**A.** 676 nM

**Q.** Which EC50 (human mGluR2 receptor) does the source give for N#Cc1c(-c2ccc(NC3CCOCC3)c(C(F)(F)F)c2)ccn(CC2CC2)c1=O [Compound 3, 1-Cyclopropylmethyl-2-oxo-4-[4-(tetrahydro-pyran-4-ylamino)-3-trifluoromethyl-phenyl]-1,2-dihydro-pyridine-3-carbonitrile] here?
**A.** 1230 nM

**Q.** Which EC50 (human mGluR2 receptor) does the source give for N#Cc1c(-c2ccc(OC3CCOCC3)c(Cl)c2)ccn(CCC2CC2)c1=O [Compound 4, 4-[3-Chloro-4-(tetrahydro-pyran-4-yloxy)-phenyl]-1-(2-cyclopropyl-ethyl)-2-oxo-1,2-dihydro-pyridine-3-carbonitrile] here?
**A.** 282 nM

**Q.** For CC(C)CCn1ccc(-c2ccc(OC3CCOCC3)c(Cl)c2)c(C#N)c1=O [Compound 5], which EC50 (human mGluR2 receptor) is on record?
**A.** 162 nM

**Q.** With N#Cc1c(-c2ccc(NC3CCOCC3)c(Cl)c2)ccn(CCC2CC2)c1=O [Compound 6] as the compound, how does the melting point read?
**A.** > 300 °C

**Q.** And the EC50 (human mGluR2 receptor)?
**A.** 219 nM

**Q.** Which EC50 (human mGluR2 receptor) does the source give for N#Cc1c(-c2ccc(NC3CCOCC3)c(C(F)(F)F)c2)ccn(CCC2CC2)c1=O [Compound 7] here?
**A.** 437 nM

**Q.** Which melting point does the source give for CCCCn1ccc(-c2ccc(NC3CCOCC3)cc2)c(C#N)c1=O [Compound 8] here?
**A.** 195 °C

**Q.** What about the EC50 (human mGluR2 receptor) of the same compound?
**A.** 2510 nM

**Q.** Which melting point does the source give for CCCCn1ccc(-c2ccc(OC3CCOCC3)cc2F)c(C#N)c1=O [Compound 9] here?
**A.** 136 °C

**Q.** What about the EC50 (human mGluR2 receptor) of the same compound?
**A.** 631 nM

**Q.** Which EC50 (human mGluR2 receptor) does the source give for CC(C)CCn1ccc(-c2ccc(NC3CCOCC3)cc2F)c(C#N)c1=O [Compound 10] here?
**A.** 1580 nM

**Q.** For CC(C)CCn1ccc(-c2ccc(NC3CCOCC3)c(F)c2)c(C#N)c1=O [Compound 11], which EC50 (human mGluR2 receptor) is on record?
**A.** 398 nM

**Q.** Which EC50 (human mGluR2 receptor) does the source give for CC(C)CCn1ccc(-c2ccc(NC3CCOCC3)c(Cl)c2)c(C#N)c1=O [Compound 12] here?
**A.** 316 nM
